Experimental data reported in the supplement of paper PMC13380429.

Tests used:
[1] = system: A549-ACE2; assay: phospholipidosis EC50; higher = less potent phospholipidosis inducer
[2] = system: A549-ACE2 infected with SARS-CoV-2; assay: SARS-CoV-2 infection rate relative to DMSO; higher = more infection; conditions: 24 h
[3] = system: A549-ACE2 infected with SARS-CoV-2; assay: morphology score (similarity to uninfected cells); higher = more like uninfected cells; conditions: 24 h
[4] = system: A549-ACE2 infected with SARS-CoV-2; assay: cell count relative to DMSO; higher = less toxic; conditions: 24 h
[5] = system: HepG2; assay: cell viability relative to DMSO; higher = less toxic; conditions: 72 h
[6] = system: Caco-2; assay: as above; conditions: 72 h
[7] = system: Calu-3; assay: as above; conditions: 72 h
[8] = system: U2OS; assay: as above; conditions: 72 h
[9] = system: Vero E6; assay: as above; conditions: 72 h
[10] = system: A549-ACE2; assay: drug-induced phospholipidosis relative to tamoxifen; higher = more phospholipidosis
[11] = system: U2OS; assay: relative viability EC50 (midpoint between 100% and the lowest measured viability); higher = less toxic; conditions: 72 h
[12] = system: HepG2; assay: drug sensitivity score (DSS) for viability; higher = more toxic; extreme values may be limits of the assay; conditions: 72 h
[13] = system: Caco-2; assay: as above; conditions: 72 h
[14] = system: Calu-3; assay: as above; conditions: 72 h
[15] = system: U2OS; assay: as above; conditions: 72 h
[16] = system: Vero E6; assay: as above; conditions: 72 h
[17] = system: Calu-3; assay: relative viability EC50 (midpoint between 100% and the lowest measured viability); higher = less toxic; conditions: 72 h
[18] = system: Vero E6; assay: as above; conditions: 72 h
[19] = system: HepG2; assay: as above; conditions: 72 h
[20] = system: Caco-2; assay: as above; conditions: 72 h

CN1CCC[C@@H](CC2c3ccccc3Sc3ccccc32)C1 (racemic) [metixene]
Conditions	SARS-CoV-2 infection rate [%]	cell count [%]	cell viability [%]	morphology score	phospholipidosis EC50 [µM]
[1], 24 h	–	–	–	–	5.44
[1], 48 h	–	–	–	–	9.46
[1], 72 h	–	–	–	–	4.98
[2], 0.1 µM	94	–	–	–	–
[2], 0.3 µM	103	–	–	–	–
[2], 1 µM	65	–	–	–	–
[2], 3 µM	30	–	–	–	–
[3], 0.1 µM	–	–	–	0.09	–
[3], 0.3 µM	–	–	–	-0.03	–
[3], 1 µM	–	–	–	0.65	–
[3], 3 µM	–	–	–	0.88	–
[4], 0.1 µM	–	106	–	–	–
[4], 0.3 µM	–	99	–	–	–
[4], 1 µM	–	110	–	–	–
[4], 3 µM	–	129	–	–	–
[5], 1 nM	–	–	104	–	–
[5], 10 nM	–	–	104	–	–
[5], 100 nM	–	–	105	–	–
[5], 1000 nM	–	–	101	–	–
[5], 10000 nM	–	–	72.3	–	–
[6], 1 nM	–	–	85.9	–	–
[6], 10 nM	–	–	94.5	–	–
[6], 100 nM	–	–	94.7	–	–
[6], 1000 nM	–	–	120	–	–
[6], 10000 nM	–	–	71.9	–	–
[7], 1 nM	–	–	102	–	–
[7], 10 nM	–	–	100	–	–
[7], 100 nM	–	–	100	–	–
[7], 1000 nM	–	–	100	–	–
[7], 10000 nM	–	–	73.1	–	–
[8], 1 nM	–	–	105	–	–
[8], 10 nM	–	–	95.3	–	–
[8], 100 nM	–	–	99.4	–	–
[8], 1000 nM	–	–	93.2	–	–
[8], 10000 nM	–	–	89.8	–	–
[9], 1 nM	–	–	96.6	–	–
[9], 10 nM	–	–	109	–	–
[9], 100 nM	–	–	105	–	–
[9], 1000 nM	–	–	101	–	–
[9], 10000 nM	–	–	74	–	–

drug-induced phospholipidosis [%], [10]
Conditions	0.3 µM	0.833333 µM	3.33333 µM	6.66667 µM	10 µM	30 µM
24 h	0.41	9.1	52.9	78.2	91.4	121
48 h	4.61	5.46	39.9	75.4	93.7	145
72 h	4.08	3.27	28.5	66.5	82.7	–

Conditions	drug sensitivity score	relative viability EC50 [µM]
[11]	–	> 10
[12]	1.1	–
[13]	0.6	–
[14]	1.1	–
[15]	0	–
[16]	0.9	–

O=[N+]([O-])c1ccccc1S(=O)(=O)NCC1CCC(CNC[C@H]2CCc3ccccc3C2)CC1 (some centres undefined) [NTNCB]
Conditions	SARS-CoV-2 infection rate [%]	cell count [%]	cell viability [%]	morphology score	phospholipidosis EC50 [µM]
[1], 24 h	–	–	–	–	1.46
[1], 48 h	–	–	–	–	3.21
[1], 72 h	–	–	–	–	5.01
[2], 0.1 µM	90	–	–	–	–
[2], 0.3 µM	102	–	–	–	–
[2], 1 µM	84	–	–	–	–
[2], 3 µM	36	–	–	–	–
[3], 0.1 µM	–	–	–	0.29	–
[3], 0.3 µM	–	–	–	-0.23	–
[3], 1 µM	–	–	–	0.28	–
[3], 3 µM	–	–	–	0.73	–
[4], 0.1 µM	–	101	–	–	–
[4], 0.3 µM	–	99	–	–	–
[4], 1 µM	–	103	–	–	–
[4], 3 µM	–	119	–	–	–
[5], 1 nM	–	–	99.1	–	–
[5], 10 nM	–	–	96.6	–	–
[5], 100 nM	–	–	91	–	–
[5], 1000 nM	–	–	101	–	–
[5], 10000 nM	–	–	57.1	–	–
[6], 1 nM	–	–	93.7	–	–
[6], 10 nM	–	–	95.2	–	–
[6], 100 nM	–	–	98.8	–	–
[6], 1000 nM	–	–	86.6	–	–
[6], 10000 nM	–	–	64.8	–	–
[7], 1 nM	–	–	104	–	–
[7], 10 nM	–	–	103	–	–
[7], 100 nM	–	–	96.6	–	–
[7], 1000 nM	–	–	105	–	–
[7], 10000 nM	–	–	15	–	–
[8], 1 nM	–	–	96.2	–	–
[8], 10 nM	–	–	93	–	–
[8], 100 nM	–	–	99.6	–	–
[8], 1000 nM	–	–	94.9	–	–
[8], 10000 nM	–	–	72.5	–	–
[9], 1 nM	–	–	94.9	–	–
[9], 10 nM	–	–	95.3	–	–
[9], 100 nM	–	–	89.8	–	–
[9], 1000 nM	–	–	94.5	–	–
[9], 10000 nM	–	–	79.2	–	–

drug-induced phospholipidosis [%], [10]
Conditions	0.3 µM	0.833333 µM	3.33333 µM	6.66667 µM	10 µM	30 µM
24 h	2.25	13.4	66.1	101	91.2	45.6
48 h	4.73	11.2	54.3	93.7	117	42.7
72 h	6.41	10.5	45.9	102	126	–

Conditions	drug sensitivity score	relative viability EC50 [µM]
[12]	2.1	–
[13]	3.3	–
[14]	4.3	–
[15]	1.9	–
[16]	0.9	–
[17]	–	3.49
[18]	–	> 10

NC(=O)N1CCC(CC(=O)N2CCC([C@H]3c4ncc(Br)cc4CCc4cc(Cl)cc(Br)c43)CC2)CC1 [lonafarnib]
Conditions	SARS-CoV-2 infection rate [%]	cell count [%]	cell viability [%]	morphology score	phospholipidosis EC50 [µM]
[1], 24 h	–	–	–	–	7.17
[2], 0.3 µM	97	–	–	–	–
[2], 3 µM	85	–	–	–	–
[2], 10 µM	71	–	–	–	–
[2], 30 µM	11	–	–	–	–
[3], 0.3 µM	–	–	–	0.19	–
[3], 3 µM	–	–	–	0.41	–
[3], 10 µM	–	–	–	0.69	–
[3], 30 µM	–	–	–	0.56	–
[4], 0.3 µM	–	98	–	–	–
[4], 3 µM	–	102	–	–	–
[4], 10 µM	–	94	–	–	–
[4], 30 µM	–	74	–	–	–
[5], 1 nM	–	–	102	–	–
[5], 10 nM	–	–	98.7	–	–
[5], 100 nM	–	–	96.2	–	–
[5], 1000 nM	–	–	89.5	–	–
[5], 10000 nM	–	–	49.8	–	–
[6], 1 nM	–	–	91.3	–	–
[6], 10 nM	–	–	106	–	–
[6], 100 nM	–	–	94.6	–	–
[6], 1000 nM	–	–	79.7	–	–
[6], 10000 nM	–	–	47.7	–	–
[7], 1 nM	–	–	80.5	–	–
[7], 10 nM	–	–	91.2	–	–
[7], 100 nM	–	–	91.3	–	–
[7], 1000 nM	–	–	72.6	–	–
[7], 10000 nM	–	–	68.5	–	–
[8], 1 nM	–	–	97.5	–	–
[8], 10 nM	–	–	100	–	–
[8], 100 nM	–	–	95	–	–
[8], 1000 nM	–	–	92	–	–
[8], 10000 nM	–	–	67.2	–	–
[9], 1 nM	–	–	103	–	–
[9], 10 nM	–	–	94.1	–	–
[9], 100 nM	–	–	94.8	–	–
[9], 1000 nM	–	–	93.3	–	–
[9], 10000 nM	–	–	88.3	–	–

drug-induced phospholipidosis [%], [10]
Conditions	0.3 µM	0.833333 µM	3.33333 µM	6.66667 µM	10 µM	30 µM
24 h	11.7	7.58	19.6	27.3	40.9	50.3
48 h	16.3	10.1	20.5	30.3	36.1	–
72 h	15.9	12.2	29.3	42.5	51.2	–

Conditions	drug sensitivity score	relative viability EC50 [µM]
[12]	4.4	–
[13]	5	–
[14]	6.3	–
[15]	2.6	–
[16]	0	–
[18]	–	> 10
[19]	–	1.7
[20]	–	1.29

Cc1cccc(/C=N/Nc2cc(N3CCOCC3)nc(OCCc3ccccn3)n2)c1 [STA-5326]
Conditions	SARS-CoV-2 infection rate [%]	cell count [%]	cell viability [%]	morphology score	phospholipidosis EC50 [µM]
[1], 24 h	–	–	–	–	0.3
[1], 48 h	–	–	–	–	0.809
[1], 72 h	–	–	–	–	0.687
[2], 0.3 µM	51	–	–	–	–
[2], 3 µM	77	–	–	–	–
[2], 10 µM	91	–	–	–	–
[2], 30 µM	35	–	–	–	–
[3], 0.3 µM	–	–	–	-0.01	–
[3], 3 µM	–	–	–	-0.14	–
[3], 10 µM	–	–	–	0	–
[3], 30 µM	–	–	–	0.18	–
[4], 0.3 µM	–	104	–	–	–
[4], 3 µM	–	95	–	–	–
[4], 10 µM	–	106	–	–	–
[4], 30 µM	–	108	–	–	–
[5], 1 nM	–	–	99.3	–	–
[5], 10 nM	–	–	88.2	–	–
[5], 100 nM	–	–	93	–	–
[5], 1000 nM	–	–	26.2	–	–
[5], 10000 nM	–	–	19.7	–	–
[6], 1 nM	–	–	91.2	–	–
[6], 10 nM	–	–	96.4	–	–
[6], 100 nM	–	–	94.7	–	–
[6], 1000 nM	–	–	78.9	–	–
[6], 10000 nM	–	–	60.8	–	–
[7], 1 nM	–	–	104	–	–
[7], 10 nM	–	–	104	–	–
[7], 100 nM	–	–	97.9	–	–
[7], 1000 nM	–	–	93.6	–	–
[7], 10000 nM	–	–	90.1	–	–
[8], 1 nM	–	–	97.6	–	–
[8], 10 nM	–	–	100	–	–
[8], 100 nM	–	–	95	–	–
[8], 1000 nM	–	–	91.3	–	–
[8], 10000 nM	–	–	75.1	–	–
[9], 1 nM	–	–	97.2	–	–
[9], 10 nM	–	–	104	–	–
[9], 100 nM	–	–	93.8	–	–
[9], 1000 nM	–	–	42.4	–	–
[9], 10000 nM	–	–	43.2	–	–

drug-induced phospholipidosis [%], [10]
Conditions	0.3 µM	0.833333 µM	3.33333 µM	6.66667 µM	10 µM	30 µM
24 h	103	105	105	124	111	85.7
48 h	104	80.8	58.2	63.7	66	–
72 h	113	59.5	34.8	46.3	59.3	–

Conditions	drug sensitivity score	relative viability EC50 [µM]
[11]	–	> 10
[12]	14.6	–
[13]	4.2	–
[14]	0	–
[15]	1.5	–
[16]	11.6	–
[17]	–	> 10
[18]	–	0.228
[19]	–	0.308
